Reference: patent US20090023771A1, “PHARMACEUTICAL COMPOSITION COMPRISING A PROTON PUMP INHIBITOR AND PROTEIN COMPONENT” (The Curators of the University of Missouri, priority 2007, published 2009)

Experiment: Degradation of omeprazole (PPI) by stomach acid when combined with buffering agent and/or protein component (FIGS. 1-6)
Assay type: physicochemical
Settings: 40 mg omeprazole with 800 mg aluminum glycinate and 800 mg sodium bicarbonate (20:1 each); FIGS. 5 and 6; compared with sodium bicarbonate and omeprazole alone (FIGS. 3 and 4)
Method: FIG. 2 is a line graph illustrating the degradation of 40 mg omeprazole when it is administered with 800 mg of L-carnosine and 800 mg sodium bicarbonate (20:1 ratio of L-carnosine to omeprazole and sodium bicarbonate to omeprazole). FIG. 4 is a line graph illustrating the degradation of 40 mg omeprazole when it is administered with 1600 mg sodium bicarbonate (40:1 ratio). FIG. 6 is a line graph illustrating the degradation of 40 mg omeprazole when it is administered with 800 mg of aluminum glycinate and 800 mg sodium bicarbonate (20:1 ratio of aluminum glycinate to omeprazole and sodium bicarbonate to omeprazole).

SMILES: COc1ccc2[nH]c([S+]([O-])Cc3ncc(C)c(OC)c3C)nc2c1 (stereo not shown) [omeprazole]
- degradation of the omeprazole: immediate degradation
